The target of this experiment is T1, orexin 1 receptor (OX1R) (Homo sapiens, UniProt O43613).
T1 construct: gene HCRTR1
T1 sequence (O43613 1-425): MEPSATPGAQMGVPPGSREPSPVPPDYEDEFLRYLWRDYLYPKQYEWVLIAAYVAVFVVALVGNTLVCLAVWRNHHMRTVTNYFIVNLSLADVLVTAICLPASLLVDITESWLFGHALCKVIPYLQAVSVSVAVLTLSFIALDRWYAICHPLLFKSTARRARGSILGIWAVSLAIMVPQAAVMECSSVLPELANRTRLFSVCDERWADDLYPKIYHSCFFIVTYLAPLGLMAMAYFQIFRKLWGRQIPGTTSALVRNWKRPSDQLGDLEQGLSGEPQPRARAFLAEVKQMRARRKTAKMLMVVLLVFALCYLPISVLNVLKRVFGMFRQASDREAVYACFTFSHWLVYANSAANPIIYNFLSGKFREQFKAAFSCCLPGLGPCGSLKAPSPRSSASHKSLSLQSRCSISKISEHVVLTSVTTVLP
Description: […]orexin-A radioligand displacement on OX1R-CHO membranes; functional Ca2+ antagonism IC50 […]. It counts as binding. (In general: Loss of bound radioactivity is the signal in a displacement assay; it reports binding, not function.)

In the case of `C=C(C)[C@@H]1CCC(C)=C[C@H]1c1c(O)cc(CCCCC)cc1O` [CBD, cannabidiol], the Ki (as a rule, the dissociation constant of the complex between target and ligand, obtained from inhibition or displacement) amounted to 1.58 ± 0.2 µM.

These data come from paper PMC8394412, “Identification and Characterization of Cannabidiol as an OX1R Antagonist by Computational and In Vitro Functional Validation” (Biomolecules, 2021).
